# Reference: publication PMC10142183, “Optimization of polymyxin B regimens for the treatment of carbapenem-resistant organism nosocomial pneumonia: a real-world prospective study” (Critical Care, 2023)
# Positions of bridges follow the written chain, without caps; N, C: chain ends. Non-standard residues stand in square brackets, D forms with d. Residues, ends and D or L forms follow the SMILES beside them. *: point of attachment. X1 = CC[C@H](C)CCCCC(=O)*; Dab = NCC[C@H](N)C(=O)O
# Key:
# [1] = Population PK model and plasma exposure in critically ill patients (HPLC-MS/MS, Phoenix NLME); type: in vivo, human; set-up: AUCss, 24h: concentration or dose not given beside the values
# Method: Polymyxin B was given to all patients empirically as a loading dose of 100–200 mg followed by a maintenance dose of 40–100 mg every 12 h for at least 3 days. The infusion time was at least 1 h. Aerosol delivery of polymyxin B (25 mg or 50 mg twice daily) was using a vibrating mesh nebulizer, synchronized with the inspiratory cycle of the ventilator. Two to six blood samples (2 mL) were randomly collected immediately before the seventh dose of polymyxin B and at 0, 1, 2, 4, 6, 8 and 10 h after the end of infusion. The supernatant was immediately stored at − 80 °C until analysis.
# An established high-performance liquid chromatography-tandem mass spectrometry (HPLC–MS/MS) was used to measure the concentrations of polymyxin B1 and polymyxin B2 as described previously by the authors’ laboratory (The total concentration of polymyxin B = [polymyxin B1 concentration/polymyxin B1 molecular + polymyxin B2 concentration/polymyxin B2 molecular]*total polymyxin B molecular). The interday precision was < 12%, the intraday precision was < 9%, and the accuracy ranged from 96.1 to 110.4%. The limit of quantification (LLOD) was 0.03 mg/L, and all of the polymyxin B concentrations detected were over LLOD.
# The Phoenix NLME program (version 8.1. Pharsight, A Certara Company, USA) with the method of first-order conditional estimation-extended least square method (FOCE-ELS) was used to develop the population PK model by analyzing polymyxin B concentration. The objective function value (OFV), goodness-of-fit plots and the reasonable of population PK parameters were used to selection of the structure model. The stepwise covariate modeling (SCM) approach was used to test the covariate model in this analysis; age, sex, body weight, alanine aminotransferase (ALT), aspartate aminotransferase (AST), total bilirubin (TBIL), direct bilirubin (DBIL), serum albumin (ALB) and CrCL were evaluated as the covariates. The SCM consists of a forward selection step (the criterion is p < 0.05 for ΔOFV decreased ≥ 3.84) and a backward elimination step (the criterion is p < 0.001 for ΔOFV increased ≥ 10.83). In addition, the goodness-of-fit plots were used to assess the validity of the population PK model, the prediction-corrected visual predictive check (pcVPC) was used to assess the predictive performance of the key models. The bootstrap method was used to assess the accuracy.
# The PK/PD indices included AUCss,24 h, AUCss,24 h/MIC, the peak and trough concentration at steady state (Cmax,ss and Cmin,ss), Cmax,ss /MIC and Cmin,ss /MIC. AUCss,24 h, Cmax,ss and Cmin,ss were calculated based on the empirical Bayesian (EBEs). For those patients with more than one baseline pathogen, AUCss,24 h/MIC, Cmax,ss /MIC and Cmin,ss /MIC evaluations were based on the pathogen with the highest MIC value.
# [2] = tested on: CRO nosocomial pneumonia; experiment: PK/PD analysis for clinical efficacy in CRO nosocomial pneumonia; type: in vivo, human
# Method: This prospective study was conducted at two intensive care units (ICU) between January 2020 and December 2021 in the Second Xiangya Hospital of Central South University (Changsha, China). […] The exclusion criteria were as follows: (a) concomitant lung cancer with obstructive pneumonitis or cystic fibrosis; (b) solid organ transplantation; (c) hematologic malignancies and hematopoietic cell transplant recipients; (d) receiving renal replacement therapy. HAP was defined according to the 2016 clinical practice guidelines of the Infectious Diseases Society of America and the American Thoracic Society. Determination of carbapenem susceptibility of CRO was followed by the European Committee on Antimicrobial Susceptibility Testing (EUCAST). Updated EUCAST Clinical Breakpoints of polymyxin B were sensitivity (S ≤ 2 mg/L) and drug resistance (R > 2 mg/L). The antimicrobial susceptibility testing was performed using the VITEK-2 Compact system with VITEK cards (0.5–16 mg/L for colistin) (bioMérieux, France). The following information was extracted from the electronic medical records: demographic and co-morbidity profiles, clinical and microbiological features of the infections, and the antimicrobial treatment regimens. Creatinine clearance (CrCL) was calculated using the Cockcroft–Gault equation. The endpoint was clinical efficacy and 30-day all-cause mortality. Assessment of clinical efficacy was conducted at the end of treatment, and 30-day mortality was recorded from the start of polymyxin B treatment. This prospective study was approved by the Ethics Committee of the Second Xiangya Hospital, Central South University. Informed consent was obtained from all patients or legal representatives of the patients (No. ChiCTR1900022231).
# Clinical outcomes were classified as clinical success (CS) and clinical failure (CF), and were assessed by two physicians. CS was defined as a composite of survival; hemodynamic stability; body temperature < 38 °C, improved biochemistry indicators of infection; stable or improved PaO2/FiO2 ratio. Additionally, for patients with bacteremia, microbiological cure (no growth of the initial isolate in blood cultures) must be achieved by the end of the treatment. […] 30-day all-cause mortality was recorded from the start of polymyxin B treatment.
# Variables potentially related to clinical efficacy and 30-day all-cause mortality were assessed, including: demographics, co-morbidities, clinical conditions, dosage regimen and concentration of polymyxin B. To develop receiver operating characteristic (ROC) curves, the PK/PD indices AUCss,24 h/MIC, Cmax,ss/MIC and Cmin,ss/MIC were used as predictors of clinical efficacy. The area under the diagnostic curve (AUCROC) was calculated to evaluate the correlation of the above parameters with clinical efficacy and 30-day all-cause mortality. Youden index of the ROC curves was calculated by "sensitivity + specificity-1", and the values corresponding to the maximum Youden index is the optimal cutoff point value of the PK/PD indices.
# Statistical analysis was performed with SPSS 24.0 (SPSS, IBM Company, Chicago, IL, USA) software. Continuous variables are presented as the mean ± standard deviation (SD) if normally distributed and were compared using Student’s t tests. The median and interquartile range (IQR) are presented for abnormally distributed data, and the Mann–Whitney U test was used. Categorical variables are expressed as counts and percentages, and the chi-square test or Fisher’s exact test was used. Spearman’s rank correlation coefficient (r) was used to analyze the correlation between Cmin,ss, Cmax,ss and AUCss,24 h. Univariate analysis was performed for all variables to identify possible predictors for clinical efficacy. Variables with a p < 0.05 were entered into the multivariate logistic regression models. […]
# [3] = tested on: CRO nosocomial pneumonia; experiment: 30-day all-cause mortality in CRO nosocomial pneumonia; type: in vivo, human; conditions: Cox regression, p = 0.001
# Method: This prospective study was conducted at two intensive care units (ICU) between January 2020 and December 2021 in the Second Xiangya Hospital of Central South University (Changsha, China). […] The exclusion criteria were as follows: (a) concomitant lung cancer with obstructive pneumonitis or cystic fibrosis; (b) solid organ transplantation; (c) hematologic malignancies and hematopoietic cell transplant recipients; (d) receiving renal replacement therapy. HAP was defined according to the 2016 clinical practice guidelines of the Infectious Diseases Society of America and the American Thoracic Society. Determination of carbapenem susceptibility of CRO was followed by the European Committee on Antimicrobial Susceptibility Testing (EUCAST). […] Creatinine clearance (CrCL) was calculated using the Cockcroft–Gault equation. […] Assessment of clinical efficacy was conducted at the end of treatment, and 30-day mortality was recorded from the start of polymyxin B treatment. […]
# Clinical outcomes were classified as clinical success (CS) and clinical failure (CF), and were assessed by two physicians. […] 30-day all-cause mortality was recorded from the start of polymyxin B treatment. […]
# Statistical analysis was performed with SPSS 24.0 (SPSS, IBM Company, Chicago, IL, USA) software. […] Categorical variables are expressed as counts and percentages, and the chi-square test or Fisher’s exact test was used. […]
# [4] = critically ill patients; weight-based regimen 1.25-1.5 mg/kg every 12 h; cited from earlier work
# Method: At present, weight-based dosing regimen (1.25–1.5 mg/kg every 12 h) is recommended for polymyxin B [17, 18]. However, polymyxin B concentration varies widely in critically ill patients with this regimen, and almost 30% patients cannot achieve AUCss,24 h values within the target therapeutic window. […] Due to these inconsistent results, further research is needed to improve the charac ...
# [5] = 30-day non-survival group (n = 28), median (IQR)
# [6] = 30-day survival group (n = 77), median (IQR)
# [7] = clinical failure group (n = 35), median (IQR)
# [8] = clinical success group (n = 70), median (IQR)
# [9] = final model estimate, two-compartment population PK, 105 patients, 295 plasma concentrations
# [10] = median of 105 patients, plasma, empirical Bayesian estimates
structure (smiles),measurement,setting,value
CC[C@H](C)CCCCC(=O)N[C@@H](CCN)C(=O)N[C@H](C(=O)N[C@@H](CCN)C(=O)N[C@H]1CCNC(=O)[C@H]([C@@H](C)O)NC(=O)[C@H](CCN)NC(=O)[C@H](CCN)NC(=O)[C@H](CC(C)C)NC(=O)[C@@H](Cc2ccccc2)NC(=O)[C@H](CCN)NC1=O)[C@@H](C)O [polymyxin B] (X1-[Dab]T[Dab][Dab][Dab][dF]L[Dab][Dab]T; lactam 4-C),"AUCss, 24h",[1]; [5],"62.1 (46.3, 83.2) mg·h/L"
same,"Cmax,ss",[1]; [5],"5.4 (4.6, 6.1) μg/mL"
same,"Cmin,ss",[1]; [5],"2.1 (1.6, 2.6) μg/mL"
same,"Cmin,ss /MIC",[1]; [5],"2.2 (1.6, 2.7)"
same,"AUCss, 24h",[1]; [6],"69.4 (58.5, 86.9) mg·h/L"
same,"Cmax,ss",[1]; [6],"6.5 (5.8, 7.2) μg/mL"
same,"Cmin,ss",[1]; [6],"2.2 (1.9, 2.5) μg/mL"
same,"Cmin,ss /MIC",[1]; [6],"2.2 (1.9, 2.5)"
same,CL (clearance in central compartment),[1]; bootstrap method estimate,1.56 L/h
same,CLd (clearance between central and peripheral compartment),[1]; bootstrap method estimate,2.41 L/h
same,Vc (volume distribution in central compartment),[1]; bootstrap method estimate,12.5 L
same,Vp (volume in peripheral compartment),[1]; bootstrap method estimate,29.9 L
same,"AUCss, 24h",[1]; [7],"60.6 (43.5, 66.6) mg·h/L"
same,"Cmax,ss",[1]; [7],"5.1 (3.7, 6.9) μg/mL"
same,"Cmin,ss",[1]; [7],"1.8 (1.0, 2.5) μg/mL"
same,"Cmin,ss /MIC",[1]; [7],"1.7 (0.9, 1.9)"
same,"AUCss, 24h",[1]; [8],"78.6 (62.4, 84.2) mg·h/L"
same,"Cmax,ss",[1]; [8],"6.8 (5.0, 7.6) μg/mL"
same,"Cmin,ss",[1]; [8],"2.4 (1.6, 2.8) μg/mL"
same,"Cmin,ss /MIC",[1]; [8],"2.4 (1.4, 3.1)"
same,CLd (clearance between central and peripheral compartment),[1]; [9],2.41 L/h
same,Vc (volume distribution in central compartment),[1]; [9],12.5 L
same,Vp (volume in peripheral compartment),[1]; [9],29.9 L
same,CL (clearance in central compartment),"[1]; final model estimate, two-compartment population PK, 105 patients, 295 plasma concentrations, IV 100-200 mg loading then 40-100 mg every 12 h",1.56 L/h
same,"AUCss, 24h",[1]; [10],67.2 mg·h/L
same,"Cmax,ss (peak concentration at steady state)",[1]; [10],5900 ng/mL
same,"Cmin,ss (trough concentration at steady state)",[1]; [10],1900 ng/mL
same,OR of combination of inhaled polymyxin B for clinical efficacy,"[2]; 51 patients with AUCss,24 h/MIC < 66.9, 95% CI 0.06-0.79, p = 0.022",0.21
same,OR of combination of inhaled polymyxin B for clinical efficacy,"[2]; 54 patients with AUCss,24 h/MIC ≥ 66.9, 95% CI 0.09-2.46, p = 0.365",0.46
same,"AOR of dose normalized-AUCss,24 h/MIC for efficacy","[2]; Covariate-Adjusted Residuals method, 95% CI 0.38-1.01, p = 0.056",0.62
same,clinical success rate,"[2]; IV + IH group, AUCss,24 h/MIC ≥ 66.9 (54 patients)",90.0%
same,clinical success rate,"[2]; IV group, AUCss,24 h/MIC < 66.9 (51 patients)",35.1%
same,clinical success rate,"[2]; IV group, AUCss,24 h/MIC ≥ 66.9 (54 patients)",82.3%
same,"favorable clinical outcomes in pneumonia patients with AUCss,24 h > 66.9",[2]; MIC mostly 1 mg/L,85.2%
same,"optimal cutoff point value of AUCss,24 h/MIC for clinical efficacy","[2]; ROC curve, largest Youden index, patients receiving combination therapy",66.9
same,clinical success rate,"[2]; all 105 patients (70/105), assessed at end of treatment, combination therapy with another antimicrobial",66.7%
same,clinical success rate,"[2]; intravenous plus inhaled (IV + IH) group, AUCss,24 h/MIC < 66.9 (51 patients)",71.4%
same,"Adjusted OR (95% CI) of AUCss,24 h/MIC for clinical efficacy","[2]; multivariate logistic regression, p = 0.009",0.97 (0.95–0.99)
same,Adjusted OR (95% CI) of daily dose (mg) for clinical efficacy,"[2]; multivariate logistic regression, p = 0.028, listed as PMB",0.98 (0.97–0.99)
same,Adjusted OR (95% CI) of combination of inhaled polymyxin B for clinical efficacy,"[2]; multivariate logistic regression, p = 0.039, aerosol 25 or 50 mg twice daily, listed as PMB",0.32 (0.11–0.94)
same,HR (95% CI) of PMB treatment duration (day) for 30-day mortality,[3],0.67 (0.53-0.85)
same,"patients who cannot achieve AUCss,24 h values within the target therapeutic window",[4],~30%
